Experimental data reported in US8367831B2, “Heterocyclic compound or salt thereof and intermediate thereof” (priority 2006, dated 2013).
≈ marks a conversion by molar mass, not a printed value. Counter-ions that a name gives are not always drawn. Like-named read-outs stand apart in the source and are kept apart here.

Experiments:
[1] = tested on: Staphylococcus aureus (S. aureus Smith); assay: S. aureus infection experiment in mice; assay type: in vivo; conditions: ICR mice, five per group; intraperitoneal infection; 3 mg/kg subcutaneously once, 1 hour after infection
Method: ICR mice (male, SPF grade, 4-week old, five mice per group) were used. A bacterial inoculum was prepared by suspending Staphylococcus aureus (S. aureus
Smith), which was cultured on a Mueller-Hinton agar plate at 37° C. overnight, in sterile physiological saline, preparing a bacterial solution of about 4×10^8 CFU/mL, and diluting the solution 10-fold in 5.6% mucin-phosphate buffer. ICR mice were intraperitoneally administered with the bacterial inoculum (approximately 2×10^7 CFU/mouse) to induce infection. Test substances were dissolved in 10% hydroxypropyl-β-cyclodextrin and 0.05 mol/L hydrochloric acid. […] The number of surviving mice was recorded on 5 days after the infection.

[2] = Cytotoxicity test (XTT); assay type: cell-based; conditions: African green monkey, vero cells, 3 days incubation, absorbance 450 nm, read-out: CC50 (concentration when cell proliferation was inhibited by 50%)
Method: Each test substance was dissolved in dimethyl sulfoxide and was prepared to each concentration with E-MEM containing 10% FBS, and then 0.1 mL of this solution was dispensed into each well of a 96-well microplate. A vero cell suspension containing 3×10^4 cells/mL was prepared with E-MEM containing 10% FBS, and 0.1 mL of the suspension was inoculated to each well. After incubation in 5% CO2 at 37° C. for 3 days, 50 μL of E-MEM containing 1 mg/mL of 2,3-bis-(2-methoxy-4-nitro-5-sulfophenyl)-5-[(phenylamino)carbonyl]-2H-tetrazolium, inner salt, monosodium salt (XTT) and 25 μM of phenazine methosulfate (PMS) was added to each well. After about 2 hours, the absorbance at 450 nm was measured with a microplate reader.
The absorbance ratio of each well supplied with the test substance and the control not containing the test substance was calculated, and the concentration of each compound when cell proliferation was inhibited by 50% (CC50; μg/mL) was calculated.

[3] = tested on: S. aureus FDA209P; assay: Susceptibility test 1: MIC by micro-dilution method; assay type: cell-based; conditions: Staphylococcus aureus, read-out: MIC (μg/mL) S. aureus FDA209P
Method: (§1) Test substances were initially dissolved in dimethylsulfoxide. Antibacterial activities (MICs) of the same compounds were determined by the micro-dilution method as recommended by the Japanese Society of Chemotherapy.
(§2) The bacteria cultured on Mueller-Hinton agar (MHA) plates at 35° C. overnight were suspended in sterile physiological saline in a concentration that was equivalent to 0.5 McFarland. The bacterial inoculum was prepared by 10-fold dilution of this suspension. Approximately 0.005 mL of the bacterial inoculum was inoculated into Cation-adjusted Mueller-Hinton broth (CAMHB, 100 μL/well) containing the test substance and was incubated at 35° C. overnight. The lowest concentration of the test substance at which no bacterial growth was macroscopically observed was determined as the MIC.

[4] = tested on: S. aureus F-3095; assay: as above; assay type: cell-based; conditions: Staphylococcus aureus
Method: as §1, §2

[5] = CAMHB, 35° C. overnight, lowest concentration with no macroscopic growth
[6] = F3095, F-3095 (MDRSA), CAMHB, 35° C. overnight, lowest concentration with no macroscopic growth, read-out: MIC (μg/mL) S. aureus F-3095
[7] = F3095, read-out: MIC (μg/mL) S. aureus F-3095

Row | SMILES | number of surviving mice on 5 days after the infection [1] | CC50 at 3 days [2] [µg/mL] | MIC [3, 5] [µg/mL] | MIC [4, 6] [µg/mL] | MIC [3] [µg/mL] | MIC [4, 7] [µg/mL]
1 | COc1cnc2ccc(=O)n(CCN3CCC(NCc4cnc(C)c(F)c4)CC3)c2c1 [Example 93, 1-(2-(4-(((5-fluoro-6-methylpyridin-3-yl)methyl)amino)piperidin-1-yl)ethyl)-7-methoxy-1,5-naphthyridin-2(1H)-one] | all mice | ≥ 51.2 | 0.0625 (≈ 0.147 µM) | 0.0313 (≈ 0.0736 µM) |  | 
2 | COc1cnc2ccc(=O)n(CCC3(O)CCC(NCc4cc5c(cn4)OCCO5)CC3)c2n1 (stereo not shown) [Example 119B, 5-(2-(4-((2,3-dihydro(1,4)dioxino(2,3-c)pyridin-7-ylmethyl)amino)-1-hydroxycyclohexyl)ethyl)-3-methoxypyrido(2,3-b)pyrazin-6(5H)-one] | all mice |  | 0.0625 (≈ 0.134 µM) | 0.0625 (≈ 0.134 µM) |  | 
3 | COc1cnc2ncc(=O)n(CCN3CCC(NCc4cc5c(cn4)OCCO5)CC3)c2c1 [Example 68, 1-(2-(4-((2,3-dihydro(1,4)dioxino(2,3-c)pyridin-7-ylmethyl)amino)piperidin-1-yl)ethyl)-7-methoxypyrido(2,3-b)pyrazin-2(1H)-one hydrochloride] | all mice | ≥ 51.2 |  |  |  | 
4 | O=c1ccc2ncc(OC(F)F)cc2n1CCN1CCC(NCc2cc3c(cn2)OCCO3)CC1 [Example 151, 7-(difluoromethoxy)-1-(2-(4-((2,3-dihydro(1,4)dioxino(2,3-c)pyridin-7-ylmethyl)amino)piperidin-1-yl)ethyl)-1,5-naphthyridin-2(1H)-one hydrochloride] | all mice |  |  |  | 0.0313 | 0.125
5 | COc1cnc2ccc(=O)n(CCN3CCC(NCc4cc(-c5ccco5)on4)CC3)c2c1 [Example 140, 1-(2-(4-(((5-(2-furyl)isoxazol-3-yl)methyl)amino)piperidin-1-yl)ethyl)-7-methoxy-1,5-naphthyridin-2(1H)-one] | all mice |  | 0.0156 (≈ 0.0347 µM) | 0.0156 (≈ 0.0347 µM) |  | 
6 | O=c1ccc2ncc(F)cc2n1CCN1CCC(NCc2cc3c(cn2)OCCC3)CC1 [Example 103, 1-(2-(4-((3,4-dihydro-2H-pyrano(2,3-c)pyridin-6-ylmethyl)amino)piperidin-1-yl)ethyl)-7-fluoro-1,5-naphthyridin-2(1H)-one hydrochloride] | all mice | ≥ 51.2 |  |  | 0.0625 | 0.0625
7 | COc1cnc2c(C)cc(=O)n(CCN3CCC(NCc4cc5c(cn4)OCCO5)CC3)c2c1 [Example 149, 1-(2-(4-((2,3-dihydro(1,4)dioxino(2,3-c)pyridin-7-ylmethyl)amino)piperidin-1-yl)ethyl)-7-methoxy-4-methyl-1,5-naphthyridin-2(1H)-one hydrochloride] | all mice |  |  |  | 0.0313 | 0.0313
